Assay results from patent US6756384B2, “Imidazole compounds” (Novo Nordisk A/S, priority 2000, dated 2004).
Structures can show the parent of a compound that is named as a salt.

Q: With `C[C@@H](NC(=O)C1CCc2[nH]cnc2C1)c1cccc2ccccc12.Cl` (some centres unmarked) as the molecule, how does the melting point read?
A: 84 to 85 °C

Q: With `Cl.O=C(NCc1cccc2ccccc12)C1CCc2[nH]cnc2C1` (centres unmarked) as the molecule, how does the melting point read?
A: 142 to 144 °C

Q: For `Cl.O=C(Cc1ccc(Cl)cc1)NC1CCc2[nH]cnc2C1` (centres unmarked), which melting point is on record?
A: 222 to 224 °C

Q: Which melting point does the source give for `O=C(NCc1ccccc1)C1CCc2[nH]cnc2C1.O=C(O)C(=O)O` (centres unmarked) here?
A: 130 to 132 °C

Q: Which melting point does the source give for `O=C(NCCc1ccccc1)C1CCc2[nH]cnc2C1.O=C(O)C(=O)O` (centres unmarked) here?
A: 197 to 199 °C

Q: Which melting point does the source give for `Cl.O=C(NCCCc1ccc(Cl)cc1)C1CCc2[nH]cnc2C1` (centres unmarked) here?
A: 146 to 148 °C

Q: With `O=C(NCc1ccccc1Cl)C1CCCc2[nH]cnc21` (centres unmarked) (as salt: hydrochloride) [Example 89, 4,5,6,7-Tetrahydro-1H-benzimidazole-4-carboxylic acid 2-chlorobenzylamide] as the molecule, how does the melting point read?
A: 165 to 167 °C

Q: With `CN(Cc1ccccc1)C(=O)C1CCCc2[nH]cnc21` (centres unmarked) (as salt: hydrochloride) [Example 90, 4,5,6,7-Tetrahydro-1H-benzimidazole-4-carboxylic acid benzylmethylamide] as the molecule, how does the melting point read?
A: 211 to 213 °C

Q: Which melting point does the source give for `O=C(NCCc1ccccc1)C1CCCc2[nH]cnc21` (centres unmarked) (as salt: hydrochloride) [Example 91, 4,5,6,7-Tetrahydro-1H-benzimidazole-4-carboxylic acid phenethylamide] here?
A: 177 to 179 °C

Q: Which melting point does the source give for `C[C@H](NC(=O)C1CCc2[nH]cnc2C1)c1cccc2ccccc12` (some centres unmarked) [Example 1] here?
A: 158 to 160 °C

Q: Which melting point does the source give for `O=C(NCc1c(Cl)cccc1Oc1ccccc1)C1CCc2[nH]cnc2C1` (centres unmarked) [Example 22, 4,5,6,7-Tetrahydro-1H-benzimidazole-5-carboxylic Acid N-(2-Chloro-6-phenoxy-benzyl)amide] here?
A: 197 to 199 °C
